Assay results taken from article PMC11823630, “In vitro potentiation of tetracyclines in Pseudomonas aeruginosa by RW01, a new cyclic peptide” (Antimicrobial Agents and Chemotherapy, 2024).
Values after ≈ are worked out from the molar mass of the structure shown.

Experiments:
P. aeruginosa 125A = experiment: MIC, CLSI broth microdilution in BD Phoenix AST Broth; format: cell-based, Pseudomonas aeruginosa; conditions: Pseudomonas aeruginosa; strain 125A; agent alone; 37°C, 18–22 h; three biological replicates
Procedure: (§1) MIC for RW01 was also tested.
(§2) FIC of RW01 (FICRW01)=MIC of RW01 in combination/MIC of RW01 alone,FIC of antibiotic (FICATB)=MIC of ATB in combination/MIC of ATB alone,FICI=FICRW01 +FICATB.
(§3) FICI was interpreted as follows: synergistic effect if FICI is ≤0.5; additive effect if 0.5 < FICI ≤ 1.0; indifferent effect if 1.0 < FICI ≤ 2.0; and finally, antagonistic effect if FICI is >2.0. The average FICI considering the antibiotic MIC (no growth in any of the replicates) at different concentrations of RW01 was calculated ([28]).

P. aeruginosa 125B = experiment: as above; format: cell-based, Pseudomonas aeruginosa; conditions: Pseudomonas aeruginosa; strain 125B; agent alone; 37°C, 18–22 h; three biological replicates
Procedure: as §1, §2, §3

P. aeruginosa 41A = experiment: as above; format: cell-based, Pseudomonas aeruginosa; conditions: Pseudomonas aeruginosa; strain 41A; agent alone; 37°C, 18–22 h; three biological replicates
Procedure: as §1, §2, §3

P. aeruginosa 41B = experiment: as above; format: cell-based, Pseudomonas aeruginosa; conditions: Pseudomonas aeruginosa; strain 41B; agent alone; 37°C, 18–22 h; three biological replicates
Procedure: as §1, §2, §3

P. aeruginosa PAO1 = experiment: as above; format: cell-based, Pseudomonas aeruginosa; conditions: Pseudomonas aeruginosa, PAO1, strain PAO1; agent alone; 37°C, 18–22 h; three biological replicates; read-out: MIC
Procedure: as §1, §2, §3

P. aeruginosa PAOUW = experiment: as above; format: cell-based, Pseudomonas aeruginosa; conditions: Pseudomonas aeruginosa, strain PAOUW; agent alone; 37°C, 18–22 h; three biological replicates; read-out: MIC
Procedure: as §1, §2, §3

P. aeruginosa PAOUW∆oprF = experiment: as above; format: cell-based, Pseudomonas aeruginosa; conditions: Pseudomonas aeruginosa, strain PAOUWΔoprF; agent alone; 37°C, 18–22 h; three biological replicates
Procedure: as §1, §2, §3

P. aeruginosa PAOΔmexR = experiment: as above; format: cell-based, Pseudomonas aeruginosa; conditions: Pseudomonas aeruginosa
Procedure: as §1, §2, §3

P. aeruginosa PAOΔmexZ = experiment: as above; format: cell-based, Pseudomonas aeruginosa; conditions: Pseudomonas aeruginosa, strain PAOΔmexZ; agent alone; 37°C, 18–22 h; three biological replicates
Procedure: as §1, §2, §3

P. aeruginosa PAOΔoprM = experiment: as above; format: cell-based, Pseudomonas aeruginosa; conditions: Pseudomonas aeruginosa
Procedure: as §1, §2, §3

P. aeruginosa PAO1, WT = experiment: MIC, Sensititre custom plate; format: cell-based; conditions: Pseudomonas aeruginosa, PAO1, read-out: MIC, Sensititre
Procedure: (§4) Selection of resistant mutants was performed for minocycline with and without RW01 in three independent replicates for wild-type P. aeruginosa reference strain PAO1. Tubes containing Mueller-Hinton broth (MHB) were inoculated and incubated for 24 h at 37°C. Afterward, 1/100 dilution of each tube was incubated at 37°C in MHB to late-exponential growth phase, measured by spectrophotometry at OD600. […] A control plate without antibiotic was included as inoculum control. After overnight incubation, colony counting of each treatment was performed to analyze the generation of resistant population. The mutant prevention concentration (MPC) was defined as the lowest concentration of antibiotic yielding no growth of resistant mutants. Selected mutants were checked for susceptibility profiles by using a Sensititre custom plate (Thermo Fisher Scientific, Massachusetts, USA) for Gram-negative bacteria, following the manufacturer’s instructions.

[1] = system: PAO1 mutant MIN16_1, nalD(T43P); experiment: MIC, Sensititre custom plate; format: cell-based; conditions: Pseudomonas aeruginosa, PAO1, read-out: MIC, Sensititre
Procedure: as §4

[2] = system: PAO1 mutant MIN16_2, nalC(aa9∆4), pilQ(nt46∆1); experiment: MIC, Sensititre custom plate; format: cell-based; conditions: Pseudomonas aeruginosa, PAO1, read-out: MIC, Sensititre
Procedure: as §4

[3] = system: PAO1 mutant MIN16_3, nfxB(nt79∆14), pilB(N349K); experiment: MIC, Sensititre custom plate; format: cell-based; conditions: Pseudomonas aeruginosa, PAO1, read-out: MIC, Sensititre
Procedure: as §4

[4] = system: PAO1 mutant MIN16_4, nalC(T50P), pilM(Q62X); experiment: MIC, Sensititre custom plate; format: cell-based; conditions: Pseudomonas aeruginosa, PAO1, read-out: MIC, Sensititre
Procedure: as §4

[5] = system: PAO1 mutant MIN1_RW01_1, pmrB(Y98N); experiment: MIC, Sensititre custom plate; format: cell-based; conditions: Pseudomonas aeruginosa, PAO1, read-out: MIC, Sensititre
Procedure: as §4

[6] = system: PAO1 mutant MIN1_RW01_2, mexR(G58E), pilB(G326D), hutC(Y181X); experiment: MIC, Sensititre custom plate; format: cell-based; conditions: Pseudomonas aeruginosa, PAO1, read-out: MIC, Sensititre
Procedure: as §4

[7] = system: PAO1 mutant MIN1_RW01_3, pmrB(V215L); experiment: MIC, Sensititre custom plate; format: cell-based; conditions: Pseudomonas aeruginosa, PAO1, read-out: MIC, Sensititre
Procedure: as §4

[8] = system: PAO1 mutant MIN2_RW01_1, pmrB(V215L); experiment: MIC, Sensititre custom plate; format: cell-based; conditions: Pseudomonas aeruginosa, PAO1, read-out: MIC, Sensititre
Procedure: as §4

[9] = system: PAO1 mutant MIN2_RW01_2, pmrB(M292T); experiment: MIC, Sensititre custom plate; format: cell-based; conditions: Pseudomonas aeruginosa, PAO1, read-out: MIC, Sensititre
Procedure: as §4

[10] = system: PAO1 mutant MIN2_RW01_3, parS(V152A); experiment: MIC, Sensititre custom plate; format: cell-based; conditions: Pseudomonas aeruginosa, PAO1, read-out: MIC, Sensititre
Procedure: as §4

[11] = system: PAO1 mutant MIN2_RW01_4, pmrB(M292T); experiment: MIC, Sensititre custom plate; format: cell-based; conditions: Pseudomonas aeruginosa, PAO1, read-out: MIC, Sensititre
Procedure: as §4

[12] = system: PAO1 mutant MIN32_1, mexR(R63H), pilB(N349K), PA0646(V316G); experiment: MIC, Sensititre custom plate; format: cell-based; conditions: Pseudomonas aeruginosa, PAO1, read-out: MIC, Sensititre
Procedure: as §4

[13] = system: PAO1 mutant MIN4_RW01_1, pmrB(R429H); experiment: MIC, Sensititre custom plate; format: cell-based; conditions: Pseudomonas aeruginosa, PAO1, read-out: MIC, Sensititre
Procedure: as §4

[14] = system: PAO1 mutant MIN4_RW01_3, pmrB(M292T); experiment: MIC, Sensititre custom plate; format: cell-based; conditions: Pseudomonas aeruginosa, PAO1, read-out: MIC, Sensititre
Procedure: as §4

[15] = system: PAO1 mutant MIN4_RW01_4, pmrB(Y98N); experiment: MIC, Sensititre custom plate; format: cell-based; conditions: Pseudomonas aeruginosa, PAO1, read-out: MIC, Sensititre
Procedure: as §4

[16] = system: PAO1 mutant MIN8_1, nalD(R3C), pilM(Q62X); experiment: MIC, Sensititre custom plate; format: cell-based; conditions: Pseudomonas aeruginosa, PAO1, read-out: MIC, Sensititre
Procedure: as §4

[17] = system: PAO1 mutant MIN8_2, pilZ(nt18InsT); experiment: MIC, Sensititre custom plate; format: cell-based; conditions: Pseudomonas aeruginosa, PAO1, read-out: MIC, Sensititre
Procedure: as §4

[18] = system: PAO1 mutant MIN8_3, pilZ(nt18InsT); experiment: MIC, Sensititre custom plate; format: cell-based; conditions: Pseudomonas aeruginosa, PAO1, read-out: MIC, Sensititre
Procedure: as §4

[19] = system: PAO1 mutant MIN8_4, pilZ(nt18InsT); experiment: MIC, Sensititre custom plate; format: cell-based; conditions: Pseudomonas aeruginosa, PAO1, read-out: MIC, Sensititre
Procedure: as §4

[20] = system: PAO1 mutant MIN1_RW01_4, pmrB(F124L); experiment: microbe, parasite or virus in culture; format: cell-based; conditions: Pseudomonas aeruginosa, PAO1, read-out: MIC, Sensititre
Procedure: as §4

[21] = system: PAO1 mutant MIN4_RW01_2, pmrB(F124S); experiment: microbe, parasite or virus in culture; format: cell-based; conditions: Pseudomonas aeruginosa, PAO1, read-out: MIC, Sensititre
Procedure: as §4

Structure (SMILES) | MIC (P. aeruginosa PAO1, WT) | MIC [1] | MIC [2] | MIC [3] | MIC [4] | MIC [5] | MIC [6] | MIC [7] | MIC [8] | MIC [9] | MIC [10] | MIC [11] | MIC [12] | MIC [13] | MIC [14] | MIC [15] | MIC [16] | MIC [17] | MIC [18] | MIC [19] | also measured
C[C@@H](O)[C@H]1C(=O)N2C(C(=O)O)=C(S[C@@H]3CN[C@H](C(=O)N(C)C)C3)[C@H](C)[C@H]12 [Meropenem, meropenem] | 1 to 2 µg/mL (≈ 2.61 to 5.22 µM) | 4 µg/mL (≈ 10.4 µM) | 2 µg/mL (≈ 5.22 µM) | ≤ 0.5 µg/mL | 2 µg/mL (≈ 5.22 µM) | 1 µg/mL (≈ 2.61 µM) | 4 µg/mL (≈ 10.4 µM) | 1 µg/mL (≈ 2.61 µM) | 1 µg/mL (≈ 2.61 µM) | 1 µg/mL (≈ 2.61 µM) | 2 to 4 µg/mL (≈ 5.22 to 10.4 µM) | 1 µg/mL (≈ 2.61 µM) | 4 µg/mL (≈ 10.4 µM) | 4 µg/mL (≈ 10.4 µM) | 2 µg/mL (≈ 5.22 µM) | 1 µg/mL (≈ 2.61 µM) | 2 µg/mL (≈ 5.22 µM) | 2 µg/mL (≈ 5.22 µM) | 2 µg/mL (≈ 5.22 µM) | 2 µg/mL (≈ 5.22 µM) | MIC (P. aeruginosa 125A): 0.5 µg/mL; MIC (P. aeruginosa 125B): 0.5 µg/mL; MIC (P. aeruginosa 41A): 4 µg/mL; MIC (P. aeruginosa 41B): 16 µg/mL; MIC (P. aeruginosa PAO1): 0.5 µg/mL; MIC (P. aeruginosa PAOUW): 1 µg/mL; MIC (P. aeruginosa PAOUW∆oprF): 2 µg/mL; MIC (P. aeruginosa PAOΔmexR): 1 µg/mL; MIC (P. aeruginosa PAOΔmexZ): 0.5 µg/mL; MIC (P. aeruginosa PAOΔoprM): 0.125 µg/mL; MIC [20]: 1 µg/mL (≈ 2.61 µM); MIC [21]: ≤ 0.5 µg/mL
NC[C@H]1O[C@H](O[C@H]2[C@H](O)[C@@H](O[C@H]3O[C@H](CO)[C@@H](O)[C@H](N)[C@H]3O)[C@H](N)C[C@@H]2N)[C@H](N)C[C@@H]1O [TOB, tobramycin] | 0.25 to 0.5 µg/mL (≈ 0.535 to 1.07 µM) | 0.5 µg/mL (≈ 1.07 µM) | ≤ 0.25 µg/mL | ≤ 0.25 µg/mL | ≤ 0.25 µg/mL | 1 µg/mL (≈ 2.14 µM) | ≤ 0.25 µg/mL | 1 µg/mL (≈ 2.14 µM) | 0.5 µg/mL (≈ 1.07 µM) | 0.5 µg/mL (≈ 1.07 µM) | 1 µg/mL (≈ 2.14 µM) | 0.5 µg/mL (≈ 1.07 µM) | 0.25 to 0.5 µg/mL (≈ 0.535 to 1.07 µM) | 0.5 µg/mL (≈ 1.07 µM) | 0.5 µg/mL (≈ 1.07 µM) | 1 µg/mL (≈ 2.14 µM) | 0.5 µg/mL (≈ 1.07 µM) | 0.5 µg/mL (≈ 1.07 µM) | ≤ 0.25 µg/mL | 0.5 µg/mL (≈ 1.07 µM) | MIC [20]: ≤ 0.25 µg/mL; MIC [21]: 0.5 µg/mL (≈ 1.07 µM)
